What follows are compounds tested against T1, Recombinant human TPH1 (MBP tagged) (Homo sapiens, UniProt P17752) (assay: TPH1 in vitro inhibition assay (kinetic fluorescence)). Conditions: TPH1 Range (TPH1 inhibition IC50).
T1 construct: cloning full length human TPH1 cDNA in to a bacterial pMAL-c5E expression vector; made in house; host or cells: E. coli BL21 (DE3)
T1 sequence (P17752 1-444): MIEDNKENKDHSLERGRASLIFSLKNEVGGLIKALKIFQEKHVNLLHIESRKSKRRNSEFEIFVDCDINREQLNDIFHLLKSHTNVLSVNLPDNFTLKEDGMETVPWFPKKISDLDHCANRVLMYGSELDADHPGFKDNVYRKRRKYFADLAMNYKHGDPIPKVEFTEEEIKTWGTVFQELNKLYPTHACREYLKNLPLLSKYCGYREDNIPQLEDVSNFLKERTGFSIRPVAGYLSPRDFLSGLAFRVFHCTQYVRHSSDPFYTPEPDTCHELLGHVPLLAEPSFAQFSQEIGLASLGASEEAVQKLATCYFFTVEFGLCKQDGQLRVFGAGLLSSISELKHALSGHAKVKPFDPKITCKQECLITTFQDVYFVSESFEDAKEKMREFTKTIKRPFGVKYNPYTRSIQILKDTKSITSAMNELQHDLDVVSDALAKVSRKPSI
Type: biochemical
Procedure, shortened: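 Final mix: 15 nM MBP-TPH1, 30 μM Trp, 36 μM 6-methyltetrahydropterin, 25 μM ferrous ammonium sulfate, 50 mM MES pH 7.1, 1% DMSO, room temperature.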
In the case of `Cc1cccc(-c2cc(Cl)ccc2[C@@H](Oc2cc(N3CCC4(CC3)CN[C@H](C(=O)O)C4)nc(N)n2)C(F)(F)F)n1` [Example 34i, (S)-8-(2-amino-6-((R)-1-(4-chloro-2-(6-methylpyridin-2-yl)phenyl)-2,2,2-trifluoroethoxy)pyrimidin-4-yl)-2,8-diazaspiro[4.5]decane-3-carboxylic acid], the IC50 is reported as 50 to 300 nM.

Same assay, conditions: read-out: TPH1 Range (TPH1 inhibition IC50)
In the case of `COCCOc1cccc(-c2cc(Cl)ccc2[C@@H](Oc2cc(N3CCC4(CC3)CN[C@H](C(=O)O)C4)nc(N)n2)C(F)(F)F)c1` [Example 34cv, (S)-8-(2-amino-6-((R)-1-(5-chloro-3′-(2-methoxyethoxy)-[1,1′-biphenyl]-2-yl)-2,2,2-trifluoroethoxy)pyrimidin-4-yl)-2,8-diazaspiro[4.5]decane-3-carboxylic acid], the IC50 is reported as < 50 nM.
`Nc1nc(O[C@H](c2ccc(Cl)cc2-c2ccccc2N)C(F)(F)F)cc(N2CCC3(CC2)CNC(C(=O)O)C3)n1` (stereo partly drawn) [Example 34d, 8-(2-amino-6-((R)-1-(2′-amino-5-chloro-[1,1′-biphenyl]-2-yl)-2,2,2-trifluoroethoxy)pyrimidin-4-yl)-2,8-diazaspiro[4.5]decane-3-carboxylic acid] showed an IC50 of 50 to 300 nM.
For `Nc1nc(O[C@H](c2ccc(Cl)cc2-c2cccc([N+](=O)[O-])c2)C(F)(F)F)cc(N2CCC3(CC2)CNC(C(=O)O)C3)n1` (stereo partly drawn) [Example 34e, 8-(2-amino-6-((R)-1-(5-chloro-3′-nitro-[1,1′-biphenyl]-2-yl)-2,2,2-trifluoroethoxy)pyrimidin-4-yl)-2,8-diazaspiro[4.5]decane-3-carboxylic acid], the IC50 was 50 to 300 nM.
Work on `Nc1cccc(-c2cc(Cl)ccc2[C@@H](Oc2cc(N3CCC4(CC3)CNC(C(=O)O)C4)nc(N)n2)C(F)(F)F)c1` (stereo partly drawn) [Example 34f, 8-(2-amino-6-((R)-1-(3′-amino-5-chloro-[1,1′-biphenyl]-2-yl)-2,2,2-trifluoroethoxy)pyrimidin-4-yl)-2,8-diazaspiro[4.5]decane-3-carboxylic acid] yielded an IC50 of 50 to 300 nM.
Compound `Nc1nc(O[C@H](c2ccc(Cl)cc2-c2ccc([N+](=O)[O-])cc2)C(F)(F)F)cc(N2CCC3(CC2)CNC(C(=O)O)C3)n1` (stereo partly drawn) [Example 34g, 8-(2-amino-6-((R)-1-(5-chloro-4′-nitro-[1,1′-biphenyl]-2-yl)-2,2,2-trifluoroethoxy)pyrimidin-4-yl)-2,8-diazaspiro[4.5]decane-3-carboxylic acid] has an IC50 of 50 to 300 nM.
Compound `Nc1ccc(-c2cc(Cl)ccc2[C@@H](Oc2cc(N3CCC4(CC3)CNC(C(=O)O)C4)nc(N)n2)C(F)(F)F)cc1` (stereo partly drawn) [Example 34h, 8-(2-amino-6-((R)-1-(4′-amino-5-chloro-[1,1′-biphenyl]-2-yl)-2,2,2-trifluoroethoxy)pyrimidin-4-yl)-2,8-diazaspiro[4.5]decane-3-carboxylic acid] has an IC50 of 300 to 3000 nM.
In the case of `CCS(=O)(=O)c1cccc(-c2cc(Cl)ccc2[C@@H](Oc2cc(N3CCC4(CC3)CN[C@H](C(=O)O)C4)nc(N)n2)C(F)(F)F)c1` [Example 34j, (S)-8-(2-amino-6-((R)-1-(5-chloro-3′-(ethylsulfonyl)-[1,1′-biphenyl]-2-yl)-2,2,2-trifluoroethoxy)pyrimidin-4-yl)-2,8-diazaspiro[4.5]decane-3-carboxylic acid], the IC50 is reported as 50 to 300 nM.
`CCCS(=O)(=O)c1cccc(-c2cc(Cl)ccc2[C@@H](Oc2cc(N3CCC4(CC3)CN[C@H](C(=O)O)C4)nc(N)n2)C(F)(F)F)c1` [Example 34k, (S)-8-(2-amino-6-((R)-1-(5-chloro-3′-(propylsulfonyl)-[1,1′-biphenyl]-2-yl)-2,2,2-trifluoroethoxy)pyrimidin-4-yl)-2,8-diazaspiro[4.5]decane-3-carboxylic acid] was tested, and the IC50 was 50 to 300 nM.
Compound `CCCCS(=O)(=O)c1cccc(-c2cc(Cl)ccc2[C@@H](Oc2cc(N3CCC4(CC3)CN[C@H](C(=O)O)C4)nc(N)n2)C(F)(F)F)c1` [Example 34l, (S)-8-(2-amino-6-((R)-1-(3′-(butylsulfonyl)-5-chloro-[1,1′-biphenyl]-2-yl)-2,2,2-trifluoroethoxy)pyrimidin-4-yl)-2,8-diazaspiro[4.5]decane-3-carboxylic acid] has an IC50 of 50 to 300 nM.

Source: patent publication US11759462B2, “Spirocyclic compounds as tryptophan hydroxylase inhibitors” (priority 2013, dated 2023)
